Source: ChEMBL document CHEMBL1909294, “Translating clinical findings into knowledge in drug safety evaluation--drug induced liver injury prediction system (DILIps)” (PLoS Comput Biol, 2011)
*1 amine or outer side, *2 acyl side, *3 side chain or, on linkers, in order; H or OH if unused. Where a SMILES comes first, the peptide text is derived from it. Bridges are numbered along the chain shown (N, C = ends). [ ]: non-standard residue; d: D form. The star is where a group is joined. pTerphenylCO(4''-OnC5H11) = CCCCCOc1ccc(-c2ccc(-c3ccc(C(=O)*)cc3)cc2)cc1; Orn(4R-OH,5R-OH) = O=C([C@H](C[C@@H](O)[C@@H](O)N[*:3])N[*:1])[*:2]; hTyr(3S-OH,4S-OH) = N[C@H](C(=O)O)[C@H](O)[C@@H](O)c1ccc(O)cc1; Pro(3S-OH,4S-Me) = C[C@H]1CN[C@H](C(=O)O)[C@H]1O; Hyp = O=C(O)[C@@H]1C[C@@H](O)CN1

Tests used:
[1] = system: Hepatotoxicity;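 on HepSE Combined Scores: combined hepatic side effect score as listed in the training data of the Drug Induced Liver Injury Prediction System (DILIps)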;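 on HepSE cholecystitis: Cholecystitis-related hepatic side effect score drawn from the DILIps (drug-induced liver injury prediction) training data set; call rule not given here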;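 on HepSE cirrhosis: cirrhosis hepatic side effect score taken from the DILIps (drug-induced liver injury prediction) training set; call rule not given here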; on HepSE hepatic failure: call rule not given here;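 on HepSE hepatitis: Hepatitis-related hepatic side effect score taken from the training data of DILIps, a prediction system for drug-induced liver injury; call rule not given here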;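 on HepSE hepatomegaly: hepatic side effect score for hepatomegaly, taken from the training set of the DILIps drug-induced liver injury prediction system; call rule not given here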;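 on HepSE liver fatty: hepatic side effect score for fatty liver, taken from the DILIps training set for predicting drug-induced liver injury; call rule not given here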
[2] = system: Hepatotoxicity; remark: listed apart in the source;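 on HepSE Combined Scores: combined hepatic side effect score as listed in the training data of the Drug Induced Liver Injury Prediction System (DILIps)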;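 on HepSE cholecystitis: Cholecystitis-related hepatic side effect score drawn from the DILIps (drug-induced liver injury prediction) training data set; call rule not given here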;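 on HepSE cirrhosis: cirrhosis hepatic side effect score taken from the DILIps (drug-induced liver injury prediction) training set; call rule not given here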; on HepSE hepatic failure: call rule not given here;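 on HepSE hepatitis: Hepatitis-related hepatic side effect score taken from the training data of DILIps, a prediction system for drug-induced liver injury; call rule not given here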;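 on HepSE hepatomegaly: hepatic side effect score for hepatomegaly, taken from the training set of the DILIps drug-induced liver injury prediction system; call rule not given here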;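 on HepSE liver fatty: hepatic side effect score for fatty liver, taken from the DILIps training set for predicting drug-induced liver injury; call rule not given here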
[3] = system: Hepatotoxicity; remark: listed apart in the source;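 on HepSE Combined Scores: combined hepatic side effect score as listed in the training data of the Drug Induced Liver Injury Prediction System (DILIps)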;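 on HepSE cholecystitis: Cholecystitis-related hepatic side effect score drawn from the DILIps (drug-induced liver injury prediction) training data set; call rule not given here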;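 on HepSE cirrhosis: cirrhosis hepatic side effect score taken from the DILIps (drug-induced liver injury prediction) training set; call rule not given here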; on HepSE hepatic failure: call rule not given here;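 on HepSE hepatitis: Hepatitis-related hepatic side effect score taken from the training data of DILIps, a prediction system for drug-induced liver injury; call rule not given here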;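 on HepSE liver fatty: hepatic side effect score for fatty liver, taken from the DILIps training set for predicting drug-induced liver injury; call rule not given here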
[4] = system: Hepatotoxicity; remark: listed apart in the source;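 on HepSE Combined Scores: combined hepatic side effect score as listed in the training data of the Drug Induced Liver Injury Prediction System (DILIps)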;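 on HepSE cholecystitis: Cholecystitis-related hepatic side effect score drawn from the DILIps (drug-induced liver injury prediction) training data set; call rule not given here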;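 on HepSE cirrhosis: cirrhosis hepatic side effect score taken from the DILIps (drug-induced liver injury prediction) training set; call rule not given here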; on HepSE hepatic failure: call rule not given here;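 on HepSE hepatitis: Hepatitis-related hepatic side effect score taken from the training data of DILIps, a prediction system for drug-induced liver injury; call rule not given here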;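 on HepSE liver fatty: hepatic side effect score for fatty liver, taken from the DILIps training set for predicting drug-induced liver injury; call rule not given here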
[5] = system: Hepatotoxicity; remark: listed apart in the source; on HepSE hepatic failure: call rule not given here
[6] = system: Hepatotoxicity; remark: listed apart in the source; on HepSE hepatic failure: call rule not given here
[7] = system: Hepatotoxicity; remark: listed apart in the source
[8] = system: Hepatotoxicity; remark: listed apart in the source
[9] = system: Hepatotoxicity; remark: listed apart in the source
[10] = system: Hepatotoxicity; remark: listed apart in the source
[11] = system: Hepatotoxicity; remark: listed apart in the source
[12] = system: Hepatotoxicity; remark: listed apart in the source
[13] = system: Hepatotoxicity; remark: listed apart in the source
[14] = system: Hepatotoxicity; remark: listed apart in the source

Compound	HepSE_hepatic failure [1]	HepSE_cholecystitis [2]	HepSE_liver fatty [3]	HepSE_Combined Scores [4]	HepSE_cirrhosis [5]	HepSE_hepatitis [6]	HepSE_hepatomegaly [7]	HepSE_hepatic necrosis [8]	HepSE_liver function tests abnormal [9]	HepSE_jaundice [10]	HepSE_bilirubinemia [11]	HepSE_elevated liver function tests [12]	HepSE_liver disease [13]	HepSE_cholelithiasis [14]
CCCCCOc1ccc(-c2ccc(-c3ccc(C(=O)N[C@H]4C[C@@H](O)[C@@H](O)NC(=O)[C@@H]5[C@@H](O)[C@@H](C)CN5C(=O)[C@H]([C@@H](C)O)NC(=O)[C@H]([C@H](O)[C@@H](O)c5ccc(O)cc5)NC(=O)[C@@H]5C[C@@H](O)CN5C(=O)[C@H]([C@@H](C)O)NC4=O)cc3)cc2)cc1 [ANIDULAFUNGIN] ({pTerphenylCO(4''-OnC5H11)}-[Orn(4R-OH,5R-OH)]T[Hyp][hTyr(3S-OH,4S-OH)]T[Pro(3S-OH,4S-Me)]; lactam 1-C)	0	0	0	2	0	0	0	1	1	0	0	0	0	0
C[C@@H](O)[C@H]1C(=O)N2C(C(=O)O)=C(S[C@@H]3CN[C@H](C(=O)Nc4cccc(C(=O)O)c4)C3)[C@H](C)[C@H]12	0	1	0	4	0	0	0	0	0	1	0	0	1	1
NC(=O)c1cnccn1 [PYRAZINAMIDE]	0	0	0	0	0	0	0	0	0	0	0	0	0	0
Nc1nc(NC2CC2)c2ncn([C@H]3C=C[C@@H](CO)C3)c2n1 [ABACAVIR]	1	0	1	3	0	0	0	0	0	0	0	1	0	0
Fc1ccc([C@@H]2CCNC[C@H]2COc2ccc3c(c2)OCO3)cc1 [PAROXETINE]	1	0	0	8	0	1	0	1	1	1	1	1	0	1
O=C(O[C@H]1C[C@H]2CC[C@@H](C1)[N+]21CCCC1)C(O)(c1ccccc1)c1ccccc1.[Cl-] [TROSPIUM CHLORIDE]	0	0	0	0	0	0	0	0	0	0	0	0	0	0
CC(C)NCC(O)COc1cccc2ccccc12 (stereo not drawn) [PROPRANOLOL]	0	0	0	0	0	0	0	0	0	0	0	0	0	0
[Cl-].[K+] [POTASSIUM CHLORIDE]	0	0	0	0	0	0	0	0	0	0	0	0	0	0
CCCCC(C)(O)C/C=C/[C@H]1[C@H](O)CC(=O)[C@@H]1CCCCCCC(=O)OC (stereo partly drawn) [MISOPROSTOL]	0	0	0	0	0	0	0	0	0	0	0	0	0	0
COCCc1ccc(OCC(O)CNC(C)C)cc1 (stereo not drawn) [METOPROLOL]	0	0	0	2	0	1	0	0	0	1	0	0	0	0
CCN(CC)CCNC(=O)c1cc(Cl)c(N)cc1OC [METOCLOPRAMIDE]	0	0	0	1	0	0	0	0	0	1	0	0	0	0
CN(Cc1cnc2nc(N)nc(N)c2n1)c1ccc(C(=O)N[C@@H](CCC(=O)O)C(=O)O)cc1 [METHOTREXATE]	1	0	0	5	1	1	0	0	0	0	1	1	0	0
